Earlier results in patent publication EP4643845A1, “COSMETIC COMPOSITION” (Shiseido Company, Ltd., priority 2022, dated 2024).
*1 amine or outer side, *2 acyl side, *3 side chain or, on linkers, in order; H or OH if unused. Where a SMILES comes first, the peptide text is derived from it. Bridges are numbered along the chain shown (N, C = ends). X1 = CC(C)CCCCCCCCCC(CC(=O)[*:1])O[*:2]

Settings: according to relevant reports

CC(C)CCCCCCCCCC1CC(=O)NC(CCC(=O)O)C(=O)NC(CC(C)C)C(=O)NC(CC(C)C)C(=O)NC(C(C)C)C(=O)NC(CC(=O)O)C(=O)NC(CC(C)C)C(=O)NC(CC(C)C)C(=O)O1 (stereo not shown) [formula (1)] (ELLVDLL; linker N-C via X1; configuration not given here)
critical micelle concentration (CMC): 0.0003 % (mass fraction)
